Results from PubChem BioAssay AID1259407 (Chemical Carcinogenesis Research Information System (CCRIS), 2018).
Activity calls are given as the source filed them. How the calls were made is not given here.

System: CCRIS mutagenicity, Ames/micronucleus/aberration tests
Assay: CCRIS mutagenicity studies
[1] = Test System: AMES SALMONELLA TYPHIMURIUM, Strain/Indicator: TA98, Metabolic Activation: HAMSTER, LIVER, S-9, AROCLOR 1254 (10%), Method: PREINCUBATION
[2] = Test System: AMES SALMONELLA TYPHIMURIUM, Strain/Indicator: TA98, Metabolic Activation: NONE, Method: PREINCUBATION
[3] = Test System: AMES SALMONELLA TYPHIMURIUM, Strain/Indicator: TA98, Metabolic Activation: RAT, LIVER, S-9, AROCLOR 1254 (10%), Method: PREINCUBATION
[4] = Test System: AMES SALMONELLA TYPHIMURIUM, Strain/Indicator: TA100, Metabolic Activation: HAMSTER, LIVER, S-9, AROCLOR 1254 (10%), Method: PREINCUBATION
[5] = Test System: AMES SALMONELLA TYPHIMURIUM, Strain/Indicator: TA100, Metabolic Activation: NONE, Method: PREINCUBATION
[6] = Test System: AMES SALMONELLA TYPHIMURIUM, Strain/Indicator: TA100, Metabolic Activation: RAT, LIVER, S-9, AROCLOR 1254 (10%), Method: PREINCUBATION
[7] = Test System: AMES SALMONELLA TYPHIMURIUM, Strain/Indicator: TA1535, Metabolic Activation: HAMSTER, LIVER, S-9, AROCLOR 1254 (10%), Method: PREINCUBATION
[8] = Test System: AMES SALMONELLA TYPHIMURIUM, Strain/Indicator: TA1535, Metabolic Activation: NONE, Method: PREINCUBATION
[9] = Test System: AMES SALMONELLA TYPHIMURIUM, Strain/Indicator: TA1535, Metabolic Activation: RAT, LIVER, S-9, AROCLOR 1254 (10%), Method: PREINCUBATION
[10] = Test System: AMES SALMONELLA TYPHIMURIUM, Strain/Indicator: TA1537, Metabolic Activation: NONE, Method: PREINCUBATION
[11] = Test System: AMES SALMONELLA TYPHIMURIUM, Strain/Indicator: TA98, Metabolic Activation: NONE, Method: STANDARD PLATE
[12] = Test System: AMES SALMONELLA TYPHIMURIUM, Strain/Indicator: TA100, Metabolic Activation: NONE, Method: STANDARD PLATE
[13] = Test System: AMES SALMONELLA TYPHIMURIUM, Strain/Indicator: TA100, Metabolic Activation: RAT, LIVER, S-9, AROCLOR 1254, Method: STANDARD PLATE

For `O=Cc1ccccc1Cl`, the mutagenic call (Test System: AMES SALMONELLA TYPHIMURIUM, Strain/Indicator: TA97, Metabolic Activation: HAMSTER, LIVER, S-9, AROCLOR 1254 (10%), Method: PREINCUBATION) was “inactive; negative”, the mutagenic call (Test System: AMES SALMONELLA TYPHIMURIUM, Strain/Indicator: TA97, Metabolic Activation: HAMSTER, LIVER, S-9, AROCLOR 1254 (30%), Method: PREINCUBATION) was “inactive; negative” and the mutagenic call (Test System: AMES SALMONELLA TYPHIMURIUM, Strain/Indicator: TA97, Metabolic Activation: NONE, Method: PREINCUBATION) was “inactive; negative”. The mutagenic call (Test System: AMES SALMONELLA TYPHIMURIUM, Strain/Indicator: TA97, Metabolic Activation: RAT, LIVER, S-9, AROCLOR 1254 (10%), Method: PREINCUBATION) was “inactive; negative”, the mutagenic call (Test System: AMES SALMONELLA TYPHIMURIUM, Strain/Indicator: TA97, Metabolic Activation: RAT, LIVER, S-9, AROCLOR 1254 (30%), Method: PREINCUBATION) was “inactive; negative” and the mutagenic call [1] was “inactive; negative”. The mutagenic call (Test System: AMES SALMONELLA TYPHIMURIUM, Strain/Indicator: TA98, Metabolic Activation: HAMSTER, LIVER, S-9, AROCLOR 1254 (30%), Method: PREINCUBATION) was “inactive; negative”, the mutagenic call [2] was “inactive; negative” and the mutagenic call (Test System: AMES SALMONELLA TYPHIMURIUM, Strain/Indicator: TA98, Metabolic Activation: RAT LIVER S-9, PCB, Method: PREINCUBATION) was “inactive; negative”. The mutagenic call [3] was “inactive; negative”, the mutagenic call (Test System: AMES SALMONELLA TYPHIMURIUM, Strain/Indicator: TA98, Metabolic Activation: RAT, LIVER, S-9, AROCLOR 1254 (30%), Method: PREINCUBATION) was “inactive; negative” and the mutagenic call [4] was “inactive; negative”. The mutagenic call (Test System: AMES SALMONELLA TYPHIMURIUM, Strain/Indicator: TA100, Metabolic Activation: HAMSTER, LIVER, S-9, AROCLOR 1254 (30%), Method: PREINCUBATION) was “inactive; negative”, the mutagenic call [5] was “inactive; negative” and the mutagenic call (Test System: AMES SALMONELLA TYPHIMURIUM, Strain/Indicator: TA100, Metabolic Activation: RAT LIVER S-9, PCB, Method: PREINCUBATION) was “inactive; negative”. For the same compound, the mutagenic call [6] was “inactive; negative”, the mutagenic call (Test System: AMES SALMONELLA TYPHIMURIUM, Strain/Indicator: TA100, Metabolic Activation: RAT, LIVER, S-9, AROCLOR 1254 (30%), Method: PREINCUBATION) was “inactive; negative” and the mutagenic call (Test System: AMES SALMONELLA TYPHIMURIUM, Strain/Indicator: TA104, Metabolic Activation: NONE, Method: PREINCUBATION) was “inactive; negative”. The mutagenic call (Test System: AMES SALMONELLA TYPHIMURIUM, Strain/Indicator: TA104, Metabolic Activation: RAT LIVER S-9, PCB, Method: PREINCUBATION) was “inactive; negative”, the mutagenic call [7] was “inactive; negative” and the mutagenic call (Test System: AMES SALMONELLA TYPHIMURIUM, Strain/Indicator: TA1535, Metabolic Activation: HAMSTER, LIVER, S-9, AROCLOR 1254 (30%), Method: PREINCUBATION) was “inactive; negative”. For the same compound, the mutagenic call [8] was “inactive; negative”, the mutagenic call [9] was “inactive; negative” and the mutagenic call (Test System: AMES SALMONELLA TYPHIMURIUM, Strain/Indicator: TA1535, Metabolic Activation: RAT, LIVER, S-9, AROCLOR 1254 (30%), Method: PREINCUBATION) was “inactive; negative”. For the same compound, the mutagenic call (Test System: AMES SALMONELLA TYPHIMURIUM, Strain/Indicator: TA1537, Metabolic Activation: HAMSTER, LIVER, S-9, AROCLOR 1254 (30%), Method: PREINCUBATION) was “inactive; negative”, the mutagenic call [10] was “inactive; negative” and the mutagenic call (Test System: AMES SALMONELLA TYPHIMURIUM, Strain/Indicator: TA1537, Metabolic Activation: RAT, LIVER, S-9, AROCLOR 1254 (30%), Method: PREINCUBATION) was “inactive; negative”. For the same compound, the mutagenic call (Test System: E.COLI, Strain/Indicator: WP2 UVRA, Metabolic Activation: RAT LIVER S-9, PCB, Method: PREINCUBATION) was “inactive; negative”.

For `CCCCCC(N)=O`, the mutagenic call [1] was “inactive; negative”, the mutagenic call [2] was “inactive; negative” and the mutagenic call [3] was “inactive; negative”. The mutagenic call [4] was “inactive; negative”, the mutagenic call [5] was “inactive; negative” and the mutagenic call [6] was “inactive; negative”. The mutagenic call [7] was “inactive; negative”, the mutagenic call [8] was “inactive; negative” and the mutagenic call [9] was “inactive; negative”. For the same compound, the mutagenic call (Test System: AMES SALMONELLA TYPHIMURIUM, Strain/Indicator: TA1537, Metabolic Activation: HAMSTER, LIVER, S-9, AROCLOR 1254 (10%), Method: PREINCUBATION) was “inactive; negative”, the mutagenic call [10] was “inactive; negative” and the mutagenic call (Test System: AMES SALMONELLA TYPHIMURIUM, Strain/Indicator: TA1537, Metabolic Activation: RAT, LIVER, S-9, AROCLOR 1254 (10%), Method: PREINCUBATION) was “inactive; negative”.

`Cc1cc(N)c(C)c2c1[nH]c1ccccc12` was tested, and the mutagenic call [11] was “inactive; negative”, the mutagenic call (Test System: AMES SALMONELLA TYPHIMURIUM, Strain/Indicator: TA98, Metabolic Activation: RAT LIVER S-9, AROCLOR 1254, Method: STANDARD PLATE) was “active; positive” and the mutagenic call [12] was “inactive; negative”. The mutagenic call (Test System: AMES SALMONELLA TYPHIMURIUM, Strain/Indicator: TA100, Metabolic Activation: RAT LIVER S-9, AROCLOR 1254, Method: STANDARD PLATE) was “inactive; negative”.

`c1ccc2c(c1)ccc1ccc3c(c12)CCC3` was tested, and the mutagenic call [13] was “active; positive”.

With `Nc1ccc(/C=C\c2ccc([N+](=O)[O-])cc2)cc1` the mutagenic call (Test System: AMES SALMONELLA TYPHIMURIUM, Strain/Indicator: TA98(1,8-DNP6), Metabolic Activation: NONE, Method: STANDARD PLATE) was “inactive; negative”, the mutagenic call (Test System: AMES SALMONELLA TYPHIMURIUM, Strain/Indicator: TA98(1,8-DNP6), Metabolic Activation: S-9, Method: STANDARD PLATE) was “active; positive” and the mutagenic call [11] was “active; positive”. For the same compound, the mutagenic call (Test System: AMES SALMONELLA TYPHIMURIUM, Strain/Indicator: TA98, Metabolic Activation: RAT, LIVER, S-9, AROCLOR 1254, Method: STANDARD PLATE) was “active; positive”, the mutagenic call (Test System: AMES SALMONELLA TYPHIMURIUM, Strain/Indicator: TA98, Metabolic Activation: S-9, Method: STANDARD PLATE) was “active; positive” and the mutagenic call [12] was “inactive; negative”. The mutagenic call [13] was “active; positive” and the mutagenic call (Test System: AMES SALMONELLA TYPHIMURIUM, Strain/Indicator: TA100, Metabolic Activation: S-9, Method: STANDARD PLATE) was “active; positive”.
